22 compounds from patent US7875647B2, “Heteroaryl-pyrazole derivatives as cannabinoid CB1 receptor antagonists” (Green Cross Corporation, priority 2006, dated 2011) can be followed below.

The assay has as its target T1, Cannabinoid-1 receptor (CB1R) (Rattus norvegicus, UniProt P20272).
T1 construct: The tissue obtained from the brain of SD rats was homogenized; from tissue; host or cells: brain of SD rats (membrane pellet of the homogenate)
In words: Cannabinoid-1 receptor (CB1R) binding affinity assay ([3H]CP-55940, rat CB-1 receptor binding protocol). The conditions noted are these: brain tissue of SD rats, [3H]CP-55940, 30° C. 60 min. How it is done:
The tissue obtained from the brain of SD rats was homogenized with a Dounce homogenate system in TME (50 mM Tris, 3 mM MgCl2 and 1 mM EDTA, pH 7.4) at 4° C., and the homogenate was centrifuged at 48,000 g for 30 min. at 4° C. The pellet was resuspended in 5 ml of TME and the suspension was divided into aliquots and stored at −70° C. until its use in the following assay.
The tissue concentrations were determined by Bradford protein analysis, and 148 μl of brain tissue of the required concentration was added to the plate. The plate was covered and placed in a 30° C. incubator for 60 min, and then transformed on GF/B filtermat pretreated in polyethylenimine (PEI) using a cell harvester. Each filter was washed five times and dried at 60° C. for 1 hr. Then, the degree of radioactivity retained by the filter was measured using Wallac Microbeta™ (PerkinElmer Life Sciences, Inc., Massachusetts, U.S.A.) and the activity of the compound for inhibiting CB1 receptor was determined therefrom.

Read-outs that look alike come from different tables or passages of the source.

T1 sequence (P20272 whole entry): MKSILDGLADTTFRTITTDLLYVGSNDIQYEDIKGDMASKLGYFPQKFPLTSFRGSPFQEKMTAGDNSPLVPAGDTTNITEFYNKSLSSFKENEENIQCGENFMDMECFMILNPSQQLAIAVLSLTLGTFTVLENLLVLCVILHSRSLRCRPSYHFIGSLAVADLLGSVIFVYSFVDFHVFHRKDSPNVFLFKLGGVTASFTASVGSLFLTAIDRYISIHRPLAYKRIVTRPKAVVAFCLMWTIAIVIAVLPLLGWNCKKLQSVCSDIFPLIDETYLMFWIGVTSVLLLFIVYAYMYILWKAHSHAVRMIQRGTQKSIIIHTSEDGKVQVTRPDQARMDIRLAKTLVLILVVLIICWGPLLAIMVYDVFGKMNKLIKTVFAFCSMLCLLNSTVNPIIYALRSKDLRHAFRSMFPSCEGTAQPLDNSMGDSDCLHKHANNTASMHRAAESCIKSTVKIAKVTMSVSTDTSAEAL

In the case of `CC(C)(C)c1nnc(-c2nn(-c3ccc(Cl)cc3Cl)c(-c3ccc(Cl)cc3)c2COc2ccccc2)o1` [Example 233, 2-tert-butyl-5-(5-(4-chlorophenyl)-1-(2,4-dichlorophenyl)-4-(phenoxymethyl)-1H-pyrazol-3-yl)-1,3,4-oxadiazole], for the setting “read-out: IC50”, the IC50 (usually the concentration that gives 50% inhibition) was found to be 28.9 nM.

For the compound `CC(C)(C)c1nnc(-c2nn(-c3ccc(Cl)cc3Cl)c(-c3ccc(Cl)cc3)c2COc2ccccn2)o1` [Example 234, 2-tert-butyl-5-(5-(4-chlorophenyl)-1-(2,4-dichlorophenyl)-4-((pyridin-2-yloxy)methyl)-1H-pyrazol-3-yl)-1,3,4-oxadiazole], the half-inhibitory concentration (IC50) (read-out: IC50) turned out to be 24.4 nM. The same measure, in the same setting: the result for `CCc1c(-c2nnc(C(C)(C)OCCCO)o2)nn(-c2ccc(Cl)cc2Cl)c1-c1ccc(Br)cc1` [Example 240, 3-(2-(5-(5-(4-bromophenyl)-1-(2,4-dichlorophenyl)-4-ethyl-1H-pyrazol-3-yl)-1,3,4-oxadiazol-2-yl)propan-2-yloxy)propan-1-ol] reads 13.7 nM; that for `Cc1c(-c2nnc(C(C)(C)C3CCCCC3)o2)nn(-c2ccc(Cl)cc2Cl)c1-c1ccc(Cl)cc1` [Example 64, 2-(5-(4-chlorophenyl)-1-(2,4-dichlorophenyl)-4-methyl-1H-pyrazol-3-yl)-5-(2-cyclohexylpropan-2-yl)-1,3,4-oxadiazole], 15.2 nM; that for `CCc1c(-c2nnc(C3(Cc4ccccc4)CC3)s2)nn(-c2ccc(Cl)cc2Cl)c1-c1ccc(Br)cc1` [Example 468, 2-(1-benzylcyclopropyl)-5-(5-(4-bromorophenyl)-1-(2,4-dichlorophenyl)-4-ethyl-1H-pyrazol-3-yl)-1,3,4-thiadiazole], 5.94 nM. Still for that read-out and setting: the result for `Clc1ccc(-c2c(Cl)c(-c3nnc(C4CCCCC4)o3)nn2-c2ccc(Cl)cc2Cl)cc1` [Example 335, 2-(4-chloro-5-(4-chlorophenyl)-1-(2,4-dichlorophenyl)-1H-pyrazol-3-yl)-5-cyclohexyl-1,3,4-oxadiazole] reads 512 nM. Same read-out and setting: the result for `CC(F)c1c(-c2nnc(C3(c4ccc(Cl)cc4)CC3)o2)nn(-c2ccc(Cl)cc2Cl)c1-c1ccc(Cl)cc1` (stereo not shown) [Example 212, 2-(5-(4-chlorophenyl)-1-(2,4-dichlorophenyl)-4-(1-fluoroethyl)-1H-pyrazol-3-yl)-5-(1-(4-chlorophenyl)cyclopropyl)-1,3,4-oxadiazole] reads 4.97 nM.

For `CCCc1c(-c2nnc(C3(c4ccc(Cl)cc4)CC3)o2)nn(-c2ccc(Cl)cc2Cl)c1-c1ccc(Cl)cc1` [Example 186, 2-(5-(4-chlorophenyl)-1-(2,4-dichlorophenyl)-4-propyl-1H-pyrazol-3-yl)-5-(1-(4-chlorophenyl)cyclopropyl)-1,3,4-oxadiazole], the IC50 (read-out: IC50) turned out to be 12.1 nM.

With “2-(1-benzylcyclopropyl)-5-(5-(4-chlorophenyl)-1-(2,4-dichlorophenyl)-4-methyl-1H-pyrazol-3-yl)-1,3,4-thiadiazole [Example 467]”, the concentration for half-maximal inhibition (IC50) (read-out: IC50) amounted to 14.8 nM. On the same count and under the same terms, the result for `Cc1c(-c2nnc(C3(c4ccc(Cl)cc4)CC3)o2)nn(-c2cc(Cl)ccc2Cl)c1-c1ccc(Cl)cc1` [Example 167, 2-(5-(4-chlorophenyl)-1-(2,5-dichlorophenyl)-4-methyl-1H-pyrazol-3-yl)-5-(1-(4-chlorophenyl)cyclopropyl)-1,3,4-oxadiazole] reads 41.9 nM; that for `Cc1c(-c2nnc(Cc3ccccn3)s2)nn(-c2ccc(Cl)cc2Cl)c1-c1ccc(Cl)cc1` [Example 352, 2-(5-(4-chlorophenyl)-1-(2,4-dichlorophenyl)-4-methyl-1H-pyrazol-3-yl)-5-(pyridin-2-ylmethyl)-1,3,4-thiadiazole], 41.2 nM; that for `CC(C)NCc1c(-c2nnc(C(C)(C)C)o2)nn(-c2ccc(Cl)cc2Cl)c1-c1ccc(Cl)cc1` [Example 295, N-((3-(5-tert-butyl-1,3,4-oxadiazol-2-yl)-5-(4-chlorophenyl)-1-(2,4-dichlorophenyl)-1H-pyrazol-4-yl)methyl)propan-2-amine], 41.5 nM. The same measure, in the same setting: the result for `CCc1c(-c2nnc(C3(c4ccc(Cl)cc4)CCC3)o2)nn(-c2ccc(Cl)cc2Cl)c1-c1ccc(Cl)cc1` [Example 154, 2-(5-(4-chlorophenyl)-1-(2,4-dichlorophenyl)-4-ethyl-1H-pyrazol-3-yl)-5-(1-(4-chlorophenyl)cyclobutyl)-1,3,4-oxadiazole] reads 7.42 nM; that for `COC(=O)NC(C)c1c(-c2nnc(C(C)(C)C)o2)nn(-c2ccc(Cl)cc2Cl)c1-c1ccc(Br)cc1` (stereo not shown) [Example 230, Methyl 1-(5-(4-bromophenyl)-3-(5-tert-butyl-1,3,4-oxadiazol-2-yl)-1-(2,4-dichlorophenyl)-1H-pyrazol-4-yl)ethylcarbamate], 9.01 nM; that for `C#Cc1c(-c2nnc(C(C)(C)C)o2)nn(-c2ccc(Cl)cc2Cl)c1-c1ccc(Cl)cc1` [Example 260, 2-tert-butyl-5-(5-(4-chlorophenyl)-1-(2,4-dichlorophenyl)-4-ethynyl-1H-pyrazol-3-yl)-1,3,4-oxadiazole], 10.6 nM. On the same count and under the same terms, the figure for `CCC1(c2nnc(-c3nn(-c4ccc(Cl)cc4Cl)c(-c4ccc(Cl)cc4)c3C)s2)CC1` [Example 488, 2-(5-(4-chlorophenyl)-1-(2,4-dichlorophenyl)-4-methyl-1H-pyrazol-3-yl)-5-(1-ethylcyclopropyl)-1,3,4-thiadiazole] is 106 nM. Regarding `Cc1c(-c2n[nH]c(CC3CC3)n2)nn(-c2ccc(Cl)cc2Cl)c1-c1ccc(Cl)cc1` [Example 620, 3-(5-(4-chlorophenyl)-1-(2,4-dichlorophenyl)-4-methyl-1H-pyrazol-3-yl)-5-(cyclopropylmethyl)-1H-1,2,4-triazole], the IC50 (read-out: IC50) turned out to be 720 nM.

For the compound `Cc1c(-c2nnc(C(C)(C)OCc3cccc(Cl)c3)o2)nn(-c2ccc(Cl)cc2Cl)c1-c1ccc(Cl)cc1` [Example 249, 2-(2-(3-Chlorobenzyloxy)propan-2-yl)-5-(5-(4-chlorophenyl)-1-(2,4-dichlorophenyl)-4-methyl-1H-pyrazol-3-yl)-1,3,4-oxadiazole], the half-inhibitory concentration (IC50) (IC50(nM)) is 11.1 nM. Take `CCc1c(-c2nnc(C3(c4ccc(C)cc4)CC3)s2)nn(-c2ccc(Cl)cc2Cl)c1-c1ccc(Br)cc1` [Example 474, 2-(5-(4-bromophenyl)-1-(2,4-dichlorophenyl)-4-ethyl-1H-pyrazol-3-yl)-5-(1-p-tolylcyclopropyl)-1,3,4-thiadiazole]: the half-maximal inhibitory concentration (IC50) (read-out: IC50) is 18.8 nM. The same measure, in the same setting: the result for `Cc1c(-c2nnc(CC3CCCCC3)s2)nn(-c2ccc(Cl)cc2Cl)c1-c1ccc(Br)cc1` [Example 387, 2-(5-(4-bromophenyl)-1-(2,4-dichlorophenyl)-4-methyl-1H-pyrazol-3-yl)-5-(cyclohexylmethyl)-1,3,4-thiadiazole] reads 24.3 nM; that for `CCc1c(-c2nnc(C3(c4ccc(Cl)cc4Cl)CC3)s2)nn(-c2ccc(Cl)cc2Cl)c1-c1ccc(Br)cc1` [Example 478, 2-(5-(4-bromophenyl)-1-(2,4-dichlorophenyl)-4-ethyl-1H-pyrazol-3-yl)-5-(1-(2,4-dichlorophenyl)cyclopropyl)-1,3,4-thiadiazole], 6.49 nM; that for `O=Cc1c(-c2nnc(C3(c4ccc(Cl)cc4)CC3)o2)nn(-c2ccc(Cl)cc2Cl)c1-c1ccc(Cl)cc1` [Example 204, 5-(4-chlorophenyl)-3-(5-(1-(4-chlorophenyl)cyclopropyl)-1,3,4-oxadiazol-2-yl)-1-(2,4-dichlorophenyl)-1H-pyrazole-4-carbaldehyde], 5.39 nM.
